Test results from US6849645B2, “Method of increased bioavailability of nutrients and pharmaceutical preparations with tetrahydropiperine and its analogues and derivatives” (priority 2000, dated 2005).

Key:
[1] = format: in vitro ADME, mouse
Protocol: The drug (100 ug/ml) was applied with 0.1% (active sample) or without (control sample) of THP in the donor compartment. Subsequently the absorbencies of the fluid in the receptor compartment for the presence of BMDP and THP were measured in time intervals of 5, 10, 15, 20, 30, 45 and 60 minutes.
Franz diffusion cell was utilized in the experiment. This is an in vitro set-up prepared from the graft of the abdominal skin of mouse to evaluate absorption of drugs and nutrients through the skin. The Franz diffusion cell contains Donor and Receptor compartments. The test drug, BMDP, with or without tetrahydropiperine (Control) was applied on one side of the skin (Donor compartment). The drug's transport to the Receptor side of the skin was estimated by UV method at pre-determined time intervals. […]
The hydrated skin was mounted on Franz diffusion cell with shaved surface facing the donor compartment. […] Absorbance of each sample was measured by UV spectrophotometer at the wavelength of 256 nm. • b. […] Absorbance of each sample was measured by UV spectrophotometer at the wavelength of 256 nm.
UV absorption Spectra of BMDP solutions show absorption at 238 nm when prepared in saline with tween 20 solution. […] Tetrahydropiperine gave absorbance at 228 nm and 275 nm. • 2. The absorbance of tetrahydropiperine was minimum at 256 nm while it was good for BMDP. […]

[2] = system: tobacco cut worm, Spodoptera litura F.; assay: whole plant or invertebrate; conditions: Spodoptera litura, in Nicotiana tabacum, 48 h, read-out: PERCENT MORTALITY (Mean of 4 replications)
Protocol: The tetrahydropiperine was tested against tobacco cut worm, Spodoptera litura F. to determine its possible increased kill rate when used with Fenvalerate—a synthetic pyrethroid.
• a. Preparation of test solution—0.5 g of the test product was dissolved in 1 ml of Ethanol and made up to 100 ml in standard volumetric flask using suitable emulsifier. This solution contains 5000 ppm a.i. (0.5 percent). Further, serial dilution was made to get 0.25, 0.125 and 0.0625% of the test product. To each of these test solutions, Fenvalerate was added to get 250 ppm of Fenvalerate a.i. in the final volume. For comparison 0.5 percent of Tetrahydropiperine, Ethanol 1.0 percent solution and 250 ppm a.i. of Fenvalerate was used. • b. Bioassay—Laboratory reared 7 day old larvae of tobacco cut worm, Spodoptera litura were used in the experiment. After a series of preliminary tests the concentrations chosen for the experiment were 0.5, 0.25, 0.125 and 0.0625 percent tetrahydropiperine. Fresh castor leaves were dipped for 30 seconds in above concentrations of test and standard compounds and blank solutions. After proper drying, the treated leaves were transferred to plastic containers. To each container 5 larvae were released. This was repeated four times so as to have 20 larvae for each concentration. Larvae in control set were fed with leaves dipped in water. Observations were recorded for larval mortality after 48 hours of exposure. Results

Earthworms = assay: Albendazole induced anthelmintic activity on earthworms (paralysis and death); format: in vivo, earthworm
Protocol: An experiment to see how tetrahydropiperine enhances the skin permeability of anthelmintic drugs such as albendazole on intestinal worms was conducted. However, as a preliminary study towards this, tests on earthworms were conducted.
Earthworms were obtained from the Al Ameen College of Pharmacy, Bangalore. Albendazole (Zentel) was obtained from Smith Kline Beecham Pharmaceuticals, Bangalore. The aqueous test solution contained tetrahydropiperine (Tetraperine™, A proprietary product of Sabinsa Corporation, USA) of 0.1% and 0.2% w/v suspended in 0.25% w/v sodium carboxy methyl cellulose.
1. Effect of Albendazole: Earth worms of similar length and weight were divided into three groups of six worms each. […] The time of onset of paralysis was noted and the death of the worms were observed and recorded as above.

[3] = Franz diffusion cell, in vitro transdermal permeation of Forskolin with or without tetrahydropiperine; format: in vitro ADME, rat
Protocol: In vitro permeation studies of Forskholin, a diterpenoid compound which has various therapeutic effects (Bronchodilation—used in Asthma, prevents platelet aggregation, anti hypertensive, anti glaucoma and anti-inflammatory) was carried out. Fabricated Franz diffusion cells of capacity 67 and 69 ml were used for the study. Freshly excised rat abdominal skin was used for the permeation studies.
Solutions Used in the Study • a) 2.5% Forskolin in methanol. • b) 0.05% Tetrahydropiperine in 2.5% Forskolin in methanol. • c) 0.1% Tetrahydropiperine in 2.5% Forskolin in methanol. Procedure
Freshly excised rat abdominal […] was mounted on the Franz diffusion Cell, the outer layer of the skin facing the donor compartment. The receptor fluid was maintained at 35° C. using a thermostatic magnetic stirrer.
The study was conducted by replacing the medium in the receptor compartment with methanol instead of phosphate buffer. In both the receptor and donor compartment methanol was used as the medium in the permeation studies.
In the donor compartment 2 ml methanol containing 50 mg of Forskolin and tetrahydropiperine (5% of Forskolin conc.) was taken. Receptor compartment consisted of 69 ml of methanol maintained at 35° C. Permeation study was carried out for a period of 1 hr. Samples were withdrawn at 15, 30 and 60 minutes intervals and the amount of Forskholin present was analyzed by HPLC.
In the donor compartment 2 ml methanol containing 50 mg of Forskholin was taken. Receptor compartment consisted of 65 ml of methanol maintained at 35° C. Permeation study was carried out for a period of 1 hour. Samples were withdrawn at 15, 30 and 60 minutes intervals and the amount of Forskholin present was analyzed by HPLC.

## CCC(=O)OCC(=O)[C@@]1(OC(=O)CC)[C@@H](C)C[C@H]2[C@@H]3CCC4=CC(=O)C=C[C@]4(C)[C@@]3(F)[C@@H](O)C[C@@]21C [BMDP, Betamethasone dipropionate]
[1]
  amount of drug (BMDP) diffused in control: undetectable

## CC(C)C(C(=O)OC(C#N)c1cccc(Oc2ccccc2)c1)c1ccc(Cl)cc1 (centres unmarked) [Fenvalerate, reference compound]
[2]
  mortality at 250 ppm: 55%

## CCCSc1ccc2nc(NC(=O)OC)[nH]c2c1 [Albendazole, reference compound]
Earthworms; Albendazole 0.2% w/v alone
  Time taken in minutes (Mean ± SEM), Paralysis: 99.0 ± 3.93 min
Earthworms; albendazole 0.1%
  time until anthelmintic activity: > 2 h
Earthworms; albendazole 0.2%
  time until anthelmintic activity: ≤ 2 h

## C=C[C@@]1(C)CC(=O)[C@]2(O)[C@@]3(C)[C@@H](O)CCC(C)(C)[C@@H]3[C@H](O)[C@H](OC(C)=O)[C@@]2(C)O1 [Forskolin, reference compound]
[3]; Forskolin 50 mg in methanol without THP, 15 min
  Forskolin Release Control: 1.28
[3]; Forskolin without THP, 30 min
  Forskolin Release Control: 4.05
[3]; Forskolin without THP, 60 min
  Forskolin Release Control: 8.45
